According to PMC12720774, “Detergents alter the stability and lipid binding properties of the CD1d immunoreceptor” (Protein Science : A Publication of the Protein Society, 2025):
Values joined by “and” are separate entries in the source; they are usually repeats but may differ in a detail not shown here. Equal values may be shown once. Read-outs that look alike come from different tables or passages of the source.

Key:
AF647‐labeled hCD1d [1] = molecular target: T1, AF647‐labeled hCD1d (Homo sapiens, UniProt P15813); assay: Microscale thermophoresis (MST) binding assay; settings: read-out: K D (MST) of lipid
T1 construct: TEV protease cleavage site ENLYFQS (C); BirA biotinylation site (C); His7 (C); made in house; host or cells: TurboCHO cells (GenScript)
Text: (§1) The experimental limitations of ITF, such as low instrument sensitivity, high sample consumption, signal overlap with some ligands, and low throughput (Fossum et al., [2023]), made it necessary to employ alternative, complementary assays to quantify detergent binding to hCD1d. […] MST measures the diffusion of fluorescent molecules in response to microscopic temperature gradients (Seidel et al., [2013]). When a protein forms a complex with a ligand, changes in hydrodynamic properties, charge, or solvation energy alter its thermophoretic behavior, allowing detection of binding events. To perform MST experiments, Alexa Fluor 647 (AF647) dye was covalently attached to the primary amines of hCD1d via standard N‐hydroxysuccinimide coupling chemistry (Anderson et al., [1964]). The concentration of AF647‐hCD1d was kept constant, and the change in MST signal was measured as a function of increasing detergent concentration (Figure S3). Like ITF, any lipid or detergent that destabilizes CD1 can also alter the MST signal since unfolding changes the protein's Stokes radius and its thermophoretic behavior. […] This is why we compare MST results with ITF and nanoDSF, as described below.
(§2) For MST, hCD1d was fluorescently labeled with AF647‐NHS Ester (Invitrogen #A20006). Briefly, a 10 mM stock of AF647‐NHS was prepared in anhydrous DMSO. Then, 100 μL of 50 μM hCD1d in 1X PBS pH 7.4 was mixed with 1 μL of 10 mM AF647‐NHS (1:2 molar ratio of protein: dye). The mixture was allowed to react for 1 h in the dark at 25°C. Unreacted dye was removed from the protein–dye conjugate by performing size exclusion chromatography in the dark with a Superdex 200 Increase 10/300 GL column at a flow rate of 0.5 mL/min in SEC buffer (100 mM NaCl, 20 mM sodium phosphate, pH 7.2). The degree of labeling was determined by a NanoDrop spectrophotometer at A647 nm (dye absorbance) and A280 nm (hCD1d absorbance). The degree of labeling was determined from the ratio of dye concentration to protein concentration. The degree of labeling was ~75%.
(§3) MST experiments were performed using a Monolith NT.115 instrument (NanoTemper Technologies) using Monolith standard capillaries and the red excitation laser setup. The following settings were applied for all MST experiments: excitation power: 30%–50%, MST power: medium, before MST time: 3 s, MST on time (IR laser): 20 seconds, and after MST time: 1 s. MST measurements were analyzed using the Monolith Affinity Analysis software v2.3 and exported for plotting in GraphPad Prism v10.1. Three replicates were performed, and data are presented as the mean ± standard deviation (n = 3).
(§4) MST measurements of 100 nM AF647‐hCD1d were acquired in the absence and presence of detergents in 1X PBS pH 7.4 at 25°C. Prior to data acquisition, hCD1d and detergent or lipid samples were incubated at 37°C overnight (~12 h) to simulate in vitro and in vivo loading conditions. […] For 18:1 LPC experiments: MST data of 100 nM AF647‐hCD1d were acquired in the absence and presence of 18:1 LPC in 1X PBS pH 7.4 at 25°C.

hCD1d = hCD1d (Homo sapiens, UniProt P15813+P61769); assay: Nano differential scanning fluorimetry (nanoDSF) thermal stability; assay type: binding; design: TEV protease cleavage site ENLYFQS (C); BirA biotinylation site (C); His7 (C); made in house; host or cells: TurboCHO cells (GenScript); settings: absence vs presence of 200 μM 18:1 LPC; no detergent
Text: We next sought to probe the ability of each detergent to influence the thermal stability of hCD1d. NanoDSF has been previously applied to measure lipid/detergent‐induced thermal stability changes in target proteins (Cecchetti et al., [2021]; Kotov et al., [2019]), but has not yet been applied to ligand binding to CD1. NanoDSF measures the ITF ratio (F 350 nm/F 330 nm) of proteins as a function of temperature to extract thermodynamic parameters. Given that ligand binding typically shifts the melting temperature of proteins, the effect of a ligand on protein stability can be approximated with the ΔT m value (the difference in T m with and without excess ligand) (Cecchetti et al., [2021]; Kotov et al., [2019]). We found all detergents tested to destabilize hCD1d, albeit to different degrees, with ΔT m values ranging from −0.8 to −14.2°C (Figures 4, S4, and Table 1).
Nano differential scanning fluorometry (nanoDSF) was performed using a Prometheus NT.48 (NanoTemper Technologies). Purified hCD1d at 1 μM in 1X PBS pH 7.4 was loaded into nanoDSF grade standard capillaries (NanoTemper Technologies) and exposed to temperatures ranging from 20 to 95°C with a thermal ramping rate of 1°C/min. Excitation power was set to 50%. The ratio of intrinsic fluorescence emission (F 350 nm/F 330 nm) was monitored. Melting temperatures (T m) were obtained from fitting the first derivative plots in the Prometheus NT.48 Software. The experiments were performed in triplicate, and data are presented as the mean ± standard deviation (n = 3).
For experiments with most detergents, prior to data acquisition, hCD1d and detergent or lipid samples were incubated at 37°C overnight (~12 h) to simulate in vitro and in vivo loading conditions. […] For 18:1 LPC experiments: nanoDSF spectra were acquired in the absence and presence of 18:1 LPC in 1X PBS pH 7.4 at 25°C.

[2] = molecular target: T2, recombinant human CD1d ectodomain/β2m complex (hCD1d) (Homo sapiens, UniProt P15813); assay: Intrinsic tryptophan fluorescence (ITF) binding assay; settings: 18:1 LPC titration with 0.05% CHAPS; read-out: K D (ITF) of lipid
T2 construct: TEV protease cleavage site ENLYFQS (C); BirA biotinylation site (C); His7 (C); made in house; host or cells: TurboCHO cells (GenScript)
Experimental: For ITF assays, the concentration of hCD1d was kept constant, and intrinsic Trp fluorescence (excitation at 285 nm, emission at 335 nm) was measured as a function of increasing detergent concentration (Fossum et al., [2023]) (Figure S2). The change in relative fluorescence intensity (F − F 0/F 0) provides an indication of binding. […] This was due to limited detergent solubility and decreased hCD1d stability in the presence of a large excess of detergent (see below). […] SDS was the exception, for which Trp fluorescence of hCD1d decreased with added detergent. This could indicate a unique conformational change or destabilization of the protein.
ITF spectra were recorded from 300 to 500 nm using a Horiba FL3‐21 Fluorometer with the excitation wavelength of 285 nm and excitation/emission slits of 6.2 nm. Fluorescence spectra of 50 to 100 nM hCD1d were acquired in the absence and presence of detergents in 1X PBS pH 7.4 at 25°C. Prior to data acquisition, hCD1d and detergent or lipid samples were incubated at 37°C overnight (~12 h) to simulate in vitro and in vivo loading conditions. […] For 18:1 LPC experiments, fluorescence spectra of 100 nM hCD1d were acquired in the absence and presence of 18:1 LPC in 1X PBS pH 7.4 at 25°C. […] For all ITF experiments, the change in fluorescence signal (F − F 0/F 0) was determined at 335 nm. Three replicates were performed, and data are presented as the mean ± standard deviation (n = 3). K D values were fitted with non‐linear regression in GraphPad Prism v10.1.

[3] = approximate, cited from earlier work
AF647‐labeled hCD1d [4] = molecular target: T3, AF647‐labeled hCD1d (Homo sapiens, UniProt P15813+P61769); assay: Microscale thermophoresis (MST) binding assay
T3 construct: TEV protease cleavage site ENLYFQS (C); BirA biotinylation site (C); His7 (C); made in house; host or cells: TurboCHO cells (GenScript)
Text: as §1, §2, §3, §4

CD1c = tested on: CD1c; design: method as in Mansour et al., 2016; settings: ref Mansour et al., 2016; cited from earlier work
[5] = 0.001 M detergent, 100 nM AF647‐hCD1d
[6] = Figure 5B, detergent binding to hCD1d, read-out: MST - Kd (uM) average
[7] = detergent with 100 nM AF647‐labeled hCD1d, 25°C, apparent, read-out: K D (MST)

T3 sequence (P61769+P15813 fused): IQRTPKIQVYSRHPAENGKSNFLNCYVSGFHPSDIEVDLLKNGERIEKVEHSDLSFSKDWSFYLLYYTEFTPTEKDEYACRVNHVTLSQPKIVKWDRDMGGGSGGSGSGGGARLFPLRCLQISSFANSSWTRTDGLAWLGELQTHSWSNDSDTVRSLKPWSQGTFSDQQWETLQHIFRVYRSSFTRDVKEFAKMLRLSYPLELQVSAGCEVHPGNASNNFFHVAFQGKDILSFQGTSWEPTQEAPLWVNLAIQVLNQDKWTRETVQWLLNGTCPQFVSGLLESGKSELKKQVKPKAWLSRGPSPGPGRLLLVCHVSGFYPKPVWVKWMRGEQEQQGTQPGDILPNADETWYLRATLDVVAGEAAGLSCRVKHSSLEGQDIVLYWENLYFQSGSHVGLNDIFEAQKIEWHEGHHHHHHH
T1 sequence (P15813 whole entry, looked up): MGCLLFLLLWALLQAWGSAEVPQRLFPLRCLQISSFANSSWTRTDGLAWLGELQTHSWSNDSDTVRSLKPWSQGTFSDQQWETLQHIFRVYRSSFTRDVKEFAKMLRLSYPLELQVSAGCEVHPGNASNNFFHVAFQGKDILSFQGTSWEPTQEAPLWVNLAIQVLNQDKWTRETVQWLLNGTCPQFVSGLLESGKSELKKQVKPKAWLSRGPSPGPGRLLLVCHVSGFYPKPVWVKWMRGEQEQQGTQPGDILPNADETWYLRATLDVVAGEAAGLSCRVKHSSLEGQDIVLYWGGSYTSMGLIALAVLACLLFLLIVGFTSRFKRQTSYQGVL
Chain of hCD1d (P61769+P15813 fused): as the sequence (P61769+P15813 fused) above
T2 sequence (P15813 whole entry, looked up, the tested form may be a part, one chain of several): as the sequence (P15813 whole entry, looked up) above

CCCCCCCC/C=C\CCCCCCCC(=O)OC[C@@H](O)COP(=O)([O-])OCC[N+](C)(C)C [18:1 LPC, 1‐oleoyl‐2‐hydroxy‐sn‐glycero‐3‐phosphocholine]
Kd (AF647‐labeled hCD1d [1]; 18:1 LPC titration with 0.05% CHAPS): 5.6 ± 1.3 µM | Kd (AF647‐labeled hCD1d [1]; 18:1 LPC titration, absence of detergent, 100 nM AF647‐hCD1d, 25°C): ~7.7 µM and 7.7 µM | ΔT m (nanoDSF) of lipid (hCD1d): −8.1 ± 1.7 °C | Kd [2]: 59.9 ± 19.4 µM

Triton X‐100
CMC ([3]; ref Anatrace catalogue): 230 µM | CMC ([3]; weight/volume, ref Anatrace catalogue): 0.015% | Fnorm (rep 1-3) (AF647‐labeled hCD1d [4]; 3.05176e-8 M detergent): 791.41 ‰ and 793.583 ‰ and 796.04 ‰ | Fnorm (rep 1-3) (AF647‐labeled hCD1d [4]; 6.10352e-8 M detergent): 790.759 ‰ and 794.057 ‰ and 796.294 ‰ | Fnorm (rep 1-3) (AF647‐labeled hCD1d [4]; 1.2207e-7 M detergent): 791.349 ‰ and 794.228 ‰ and 797.32 ‰ | Fnorm (rep 1-3) (AF647‐labeled hCD1d [4]; 2.44141e-7 M detergent): 790.267 ‰ and 793.445 ‰ and 796.715 ‰ | Fnorm (rep 1-3) (AF647‐labeled hCD1d [4]; 4.88281e-7 M detergent): 790.372 ‰ and 793.504 ‰ and 796.705 ‰ | Fnorm (rep 1-3) (AF647‐labeled hCD1d [4]; 9.76563e-7 M detergent): 791.231 ‰ and 794.12 ‰ and 796.582 ‰ | Fnorm (rep 1-3) (AF647‐labeled hCD1d [4]; 1.95313e-6 M detergent): 791.888 ‰ and 794.837 ‰ and 796.079 ‰ | Fnorm (rep 1-3) (AF647‐labeled hCD1d [4]; 3.90625e-6 M detergent): 797.735 ‰ and 798.529 ‰ and 800.673 ‰ | Fnorm (rep 1-3) (AF647‐labeled hCD1d [4]; 7.8125e-6 M detergent): 801.114 ‰ and 802.717 ‰ and 802.805 ‰ | Fnorm (rep 1-3) (AF647‐labeled hCD1d [4]; 1.5625e-5 M detergent): 806.412 ‰ and 805.281 ‰ and 808.579 ‰ | Fnorm (rep 1-3) (AF647‐labeled hCD1d [4]; 3.125e-5 M detergent): 808.925 ‰ and 810.844 ‰ and 811.355 ‰ | Fnorm (rep 1-3) (AF647‐labeled hCD1d [4]; 6.25e-5 M detergent): 813.586 ‰ and 816.925 ‰ and 817.48 ‰ | Fnorm (rep 1-3) (AF647‐labeled hCD1d [4]; 0.000125 M detergent): 826.07 ‰ and 832.084 ‰ and 828.584 ‰ | Fnorm (rep 1-3) (AF647‐labeled hCD1d [4]; 0.00025 M detergent): 828.437 ‰ and 829.609 ‰ and 830.632 ‰ | Fnorm (rep 1-3) (AF647‐labeled hCD1d [4]; 0.0005 M detergent): 829.715 ‰ and 832.769 ‰ and 836.286 ‰ | Fnorm (rep 1-3) (AF647‐labeled hCD1d [4]; [5]): 833.009 ‰ and 835.212 ‰ and 836.54 ‰ | Kd (AF647‐labeled hCD1d [4]; [6]): 45.8 µM | Kd (AF647‐labeled hCD1d [4]; [7]): 45.8 ± 7.9 µM | stripping of lipid antigens from CD1c (in words) (CD1c): could efficiently strip lipid antigens away

NP‐40
CMC ([3]; ref Fisher catalogue): 290 µM | CMC ([3]; weight/volume, ref Fisher catalogue): 0.0179% | Fnorm (rep 1-3) (AF647‐labeled hCD1d [4]; 3.05176e-8 M detergent): 785.26 ‰ and 791.115 ‰ and 789.222 ‰ | Fnorm (rep 1-3) (AF647‐labeled hCD1d [4]; 6.10352e-8 M detergent): 784.438 ‰ and 791.56 ‰ and 788.778 ‰ | Fnorm (rep 1-3) (AF647‐labeled hCD1d [4]; 1.2207e-7 M detergent): 784.577 ‰ and 791.858 ‰ and 788.445 ‰ | Fnorm (rep 1-3) (AF647‐labeled hCD1d [4]; 2.44141e-7 M detergent): 783.564 ‰ and 789.878 ‰ and 788.022 ‰ | Fnorm (rep 1-3) (AF647‐labeled hCD1d [4]; 4.88281e-7 M detergent): 786.159 ‰ and 790.976 ‰ and 787.911 ‰ | Fnorm (rep 1-3) (AF647‐labeled hCD1d [4]; 9.76563e-7 M detergent): 783.182 ‰ and 790.102 ‰ and 788.409 ‰ | Fnorm (rep 1-3) (AF647‐labeled hCD1d [4]; 1.95313e-6 M detergent): 785.891 ‰ and 792.21 ‰ and 790.819 ‰ | Fnorm (rep 1-3) (AF647‐labeled hCD1d [4]; 3.90625e-6 M detergent): 790.454 ‰ and 796.89 ‰ and 795.418 ‰ | Fnorm (rep 1-3) (AF647‐labeled hCD1d [4]; 7.8125e-6 M detergent): 794.424 ‰ and 799.885 ‰ and 798.852 ‰ | Fnorm (rep 1-3) (AF647‐labeled hCD1d [4]; 1.5625e-5 M detergent): 798.147 ‰ and 805.399 ‰ and 802.688 ‰ | Fnorm (rep 1-3) (AF647‐labeled hCD1d [4]; 3.125e-5 M detergent): 808.083 ‰ and 815.048 ‰ and 810.611 ‰ | Fnorm (rep 1-3) (AF647‐labeled hCD1d [4]; 6.25e-5 M detergent): 810.692 ‰ and 818.134 ‰ and 815.29 ‰ | Fnorm (rep 1-3) (AF647‐labeled hCD1d [4]; 0.000125 M detergent): 813.488 ‰ and 820.003 ‰ and 816.128 ‰ | Fnorm (rep 1-3) (AF647‐labeled hCD1d [4]; 0.00025 M detergent): 817.047 ‰ and 822.493 ‰ and 816.971 ‰ | Fnorm (rep 1-3) (AF647‐labeled hCD1d [4]; 0.0005 M detergent): 814.88 ‰ and 822.01 ‰ and 817.951 ‰ | Fnorm (rep 1-3) (AF647‐labeled hCD1d [4]; [5]): 817.154 ‰ and 821.721 ‰ and 817.771 ‰ | Kd (AF647‐labeled hCD1d [4]; [6]): 15.1 µM | Kd (AF647‐labeled hCD1d [4]; [7]): 15.1 ± 1.5 µM
